Experimental data from patent US7517857B2, “Immune-modulating peptide” (POSCO, priority 2002, dated 2009).
Where a SMILES comes first, the peptide text is derived from it. Where no end group is shown, it is not given here. [ ]: non-standard residue; d: D form.

What was measured:
human neutrophils = assay: Superoxide generation in human neutrophils (cytochrome c reduction); type: cell-based; conditions: for O^2− (nmol/10^6 cells), superoxide generation: cytochrome c reduction
Method in brief: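 Neutrophils isolated from donor leukocyte concentrates by dextran sedimentation, hypotonic erythrocyte lysis and lymphocyte separation gradient; 1×10^6 cells in RPMI 1640 preincubated 1 min at 37° C with 50 μM cytochrome c, then peptide added. Superoxide quantified as cytochrome c reduction, absorbance change at 550 nm over 5 min at 1-min intervals; ≥4 independent experiments.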

FPR [1] = biological target: T1, FPR (Homo sapiens, UniProt P21462); assay: Akt phosphorylation in FPR-expressing RBL-2H3 cells (immunoblot); type: cell-based; conditions: 10 μM peptides 2 min (WKYMVm time course 1 μM)
T1 construct: expressed in transfected cells; host or cells: RBL-2H3 (rat basophilic leukemia) cells, G418-selected
T1 sequence (P21462 1-350): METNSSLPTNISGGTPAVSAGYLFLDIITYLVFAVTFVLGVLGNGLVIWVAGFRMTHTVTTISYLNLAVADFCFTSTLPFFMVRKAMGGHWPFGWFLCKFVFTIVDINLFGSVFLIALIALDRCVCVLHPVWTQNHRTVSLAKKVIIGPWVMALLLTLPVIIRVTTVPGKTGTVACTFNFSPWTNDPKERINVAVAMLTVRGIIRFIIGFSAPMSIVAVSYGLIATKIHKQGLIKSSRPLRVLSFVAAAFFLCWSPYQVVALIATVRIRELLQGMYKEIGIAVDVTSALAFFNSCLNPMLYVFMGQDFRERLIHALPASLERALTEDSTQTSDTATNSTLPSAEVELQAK
Method: It is well known that activation of chemoattractant receptors induces Akt activation via PI3K (19). Stimulation of cells with the peptides, electrophoresis and immunoblot analysis were performed according to the same method as in Example 5.
FPR- or FPRL1-expressing RBL-2H3 cells were stimulated with 1 μM WKYMVm for various periods of time (FIG. 4A). Two cells were preincubated with a vehicle or 100 ng/ml of PTX (24 hr), 50 μM of LY294002 (15 min), 5 μM of GFX (15 min), 10 μM BAPTA/AM (60min), or 50 μM PD98059 (60 min) prior to treatment with 1 μM of WKYMVm (FIG. 4B). FPR- and FPRL1-expressing RBL2H3 cells were stimulated with 10 μM of WKYMVm and the present peptides for 2 min or 5 min, respectively (FIG. 4C). Each sample (30 μg of protein) was subjected to 10% SDS-PAGE and phosphorylated Akt was determined by immunoblot analysis with an anti-phospho-Akt antibody. A western blot analysis with an anti-Akt antibody was performed to confirm that the same amounts of samples were used for the experiments. The results are shown FIGS. 4A to 4C. Results of FIGS. 4A to 4C are the representative of 3 independent experiments.

FPR [2] = biological target: T1, FPR; assay: Displacement of 125I-labeled WKYMVm binding to FPR (FPR-expressing RBL-2H3 cells); conditions: FIG. 2A
Method: From the finding that some of the peptides (WKGMVm (SEQ ID NO: 1), WKRMVm (SEQ ID NO: 11), D-Met^6 substituted peptides) could not induce a cytosolic calcium increase, it was checked whether the peptides can bind to FPR or not. Displacement of ^125I-labeled WKYMVm binding to FPR or FPRL1 by the peptides was monitored. FPR-expressing RBL-2H3 cells were incubated with [^125I] WKYMVm in the absence or presence of increasing amounts of unlabeled WKYMVm or the peptides of SEQ ID NOs: 1 to 24.
A ligand binding analysis was performed as modified from the previous report (16). The radioiodinated WKYMVm (^125I-labeled) was purchased from NEN Lifesciences (Boston, Mass.). Briefly, FPR- or FPRL1-expressing RBL-2H3 cells were seeded into 1×10^5 cells per well of a 24-well plate and cultured overnight. After blocking the cells with a blocking buffer (33 mM HEPES, pH 7.5, 0.1% BSA in RPMI) for 2 hr, a single concentration of ^125I-labeled WKYMVm was added to cells with a binding buffer (PBS containing 0.1% BSA) in the absence or presence of 50 μM unlabelled peptides and incubated for 3 hr at 4° C. with continuous shaking. Then the samples were washed 5 times with ice-cold binding buffer, and 200 μl of lysis buffer (20 mM Tris, pH 7.5, 1% Triton X-100) was added to each well. After 20 min of lysis at room temperature, the lysates were collected. Bound ^125I-labeled WKYMVm was measured for radioactivity for a γ-ray counter.

FPR [3] = biological target: T1, FPR; assay: [Ca2+]i increase in FPR-expressing RBL-2H3 cells (fura-2); type: cell-based; conditions: for EC50 (nM), intracellular calcium increase: fura-2 loaded
Method: FPR-expressing RBL-2H3 cells were stimulated with 10 μM of each peptide, and [Ca^2+]i was determined. The level of [Ca^2+]i was determined fluorometrically by Grynkiewicz's method using fura-2/AM (15). Briefly, prepared cells were incubated with 3 μM fura-2/AM at 37° C. for 50 min in a fresh serum-free RPMI 1640 medium under continuous stirring. 2×10^6 cells were aliquoted for each assay in Ca^2+-free Locke's solution (154 mM NaCl, 5.6 mM KCl, 1.2 mM MgCl2, 5 mM HEPES, pH 7.3, 10 mM glucose, and 0.2 mM EGTA). Fluorescence changes at the dual excitation wavelengths of 340 nm and 380 nm and the emission wavelength of 500 nm were measured, and the calibrated fluorescence ratio was translated into [Ca^2+]i. The peak level of the increased [Ca^2+]i was monitored.

Compound	O^2− (nmol/10^6 cells), superoxide generation (human neutrophils; peptide 100 nM)	O^2− (nmol/10^6 cells), superoxide generation (human neutrophils; peptide 10 μM)	Akt phosphorylation (FPR [1])	inhibition of [^125I] WKYMVm binding (FPR [2])	[Ca^2+]i increasing activity (FPR [3])	EC50 (nM), intracellular calcium increase (FPR [3])	concentration showing the maximal activity on superoxide generation (human neutrophils; data not shown)	O^2− (nmol/10^6 cells), superoxide generation (human neutrophils; peptide 100 nM, listed as wkymvm-NH2)	O^2− (nmol/10^6 cells), superoxide generation (human neutrophils; peptide 10 μM, listed as wkymvm-NH2)	concentration showing maximal [Ca^2+]i increase activity (FPR [3]; data not shown)
CSCC[C@H](NC(=O)CNC(=O)[C@H](CCCCN)NC(=O)[C@@H](N)Cc1c[nH]c2ccccc12)C(=O)N[C@H](C(=O)N[C@H](CCSC)C(N)=O)C(C)C [WKGMVm-NH2, Trp-Lys-Gly-Met-Val-D-Met-NH2] (H-WKGMV[dM]-NH2; N-terminus assumed)	14.2 ± 3.42 nmol/10^6 cells	37.6 ± 4.57 nmol/10^6 cells	caused Akt phosphorylation	inhibited binding of [^125I] WKYMVm in a concentration-dependent manner	did not effect a [Ca^2+]i increase until 20 μM treatment	inactive	–	–	–	–
CSCC[C@H](NC(=O)[C@H](Cc1ccc(O)cc1)NC(=O)[C@H](CCCCN)NC(=O)[C@@H](N)Cc1c[nH]c2ccccc12)C(=O)N[C@H](C(=O)N[C@H](CCSC)C(N)=O)C(C)C [WKYMVm-NH2, Trp-Lys-Tyr-Met-Val-D-Met-NH2, reference compound]	37.3 ± 6.94 nmol/10^6 cells	39.0 ± 3.58 nmol/10^6 cells	caused Akt phosphorylation	inhibited binding of [^125I] WKYMVm in a concentration-dependent manner	–	inactive	100 nM	0 nmol/10^6 cells	0 nmol/10^6 cells	around 300 nM
CSCC[C@H](NC(=O)[C@H](CCCNC(=N)N)NC(=O)[C@H](CCCCN)NC(=O)[C@@H](N)Cc1c[nH]c2ccccc12)C(=O)N[C@H](C(=O)N[C@H](CCSC)C(N)=O)C(C)C [WKRMVm-NH2, Trp-Lys-Arg-Met-Val-D-Met-NH2] (H-WKRMV[dM]-NH2; N-terminus assumed)	15.9 ± 2.48 nmol/10^6 cells	41.7 ± 8.32 nmol/10^6 cells	caused Akt phosphorylation	inhibited binding of [^125I] WKYMVm in a concentration-dependent manner	–	inactive	–	–	–	–
WKYMVE-NH2 [WKYMVE-NH2, Trp-Lys-Tyr-Met-Val-Glu-NH2]	5.0 ± 0.43 nmol/10^6 cells	33.6 ± 6.43 nmol/10^6 cells	caused Akt phosphorylation	–	–	inactive	–	–	–	–
WKYMVR-NH2 [WKYMVR-NH2, Trp-Lys-Tyr-Met-Val-Arg-NH2]	16.3 ± 1.57 nmol/10^6 cells	44.8 ± 3.65 nmol/10^6 cells	caused Akt phosphorylation	–	–	inactive	–	–	–	–
